Source: article PMC8718112, “Functional independence of endogenous μ- and δ-opioid receptors co-expressed in cholinergic interneurons” (eLife, 2021)

Molecular target: T1, δ-opioid receptor (DOR) (Mus musculus, UniProt P32300)
T1 construct: gene Oprd1; endogenous receptor on cholinergic interneurons in mouse brain slices
Assay: cell-attached recording of firing inhibition reversed by SDM25N; internalization of labeled receptors
Type: cell-based

T1 sequence (P32300 whole entry): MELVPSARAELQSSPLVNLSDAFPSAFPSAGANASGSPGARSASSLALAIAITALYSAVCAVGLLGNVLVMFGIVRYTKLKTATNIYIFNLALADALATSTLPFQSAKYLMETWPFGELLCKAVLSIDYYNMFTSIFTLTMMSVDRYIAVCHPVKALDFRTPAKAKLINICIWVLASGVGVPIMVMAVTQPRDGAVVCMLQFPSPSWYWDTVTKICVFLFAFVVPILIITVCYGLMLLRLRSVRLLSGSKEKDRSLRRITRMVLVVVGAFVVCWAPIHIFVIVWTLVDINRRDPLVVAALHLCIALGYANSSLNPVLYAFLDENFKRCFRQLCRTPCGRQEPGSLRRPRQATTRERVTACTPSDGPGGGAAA

**Q.** For `CC(C)[C@H](NC(=O)[C@H](CCC(=O)O)NC(=O)[C@H](Cc1ccccc1)NC(=O)[C@@H](C)NC(=O)[C@@H](N)Cc1ccc(O)cc1)C(=O)N[C@H](C(=O)NCC(N)=O)C(C)C` [deltorphin II], which inhibition at 1 µM is on record?
**A.** Its inhibition at 1 µM is 96.6 ± 2.7%.
